Measured values taken from ChEMBL document CHEMBL5325407, “Structure-based development of potent Plasmodium falciparum M1 and M17 aminopeptidase selective and dual inhibitors via S1'-region optimisation” (Eur J Med Chem, 2023).

Assays:
[1] = (§1) Inhibition of C-terminal 6-His tagged Plasmodium falciparum M1 aminopeptidase (195 to 1085 residues) expressed in Escherichia coli BL21(DE3) cells using H-Leu-NHMec as substrate assessed as apparent inhibition constant preincubated for 10 mins followed by substrate addition by spectrofluorimetric analysis; conditions: read-out: Ki(app)
[2] = as §1, with “M17” for “M1”, “(85” for “(195”, “605” for “1085”, “BL21 (DE3)” for “BL21(DE3)”; conditions: read-out: Ki(app)
Plasmodium falciparum = assay: Antiplasmodial activity against drug-sensitive Plasmodium falciparum 3D7 infected in Red blood cell assessed as growth inhibition measured after 72 hrs by LDH assay; assay type: functional, organism-based; conditions: 3D7, Erythrocyte

SMILES	Ki [1]	Ki [2]	EC50 (Plasmodium falciparum)
O=C(NC(C(=O)NO)c1ccc(-c2cc(F)c(F)c(F)c2)cc1)C1CNC1 (stereo not drawn)	> 500 nM	> 500 nM	–
CN1CCCC1C(=O)NC(C(=O)NO)c1ccc(-c2cc(F)c(F)c(F)c2)cc1 (stereo not drawn)	> 500 nM	> 500 nM	–
O=C(CNc1ccccc1F)NC(C(=O)NO)c1ccc(-c2cc(F)c(F)c(F)c2)cc1 (stereo not drawn)	> 500 nM	> 500 nM	285 nM
O=C(NC(C(=O)NO)c1ccc(-c2cc(F)c(F)c(F)c2)cc1)C1CCCN1 (stereo not drawn)	330 nM	> 500 nM	625 nM
O=C(CNc1ccc2cc[nH]c2c1)NC(C(=O)NO)c1ccc(-c2cc(F)c(F)c(F)c2)cc1 (stereo not drawn)	146 nM	> 500 nM	220 nM
O=C(CNc1cccc(F)c1)NC(C(=O)NO)c1ccc(Br)cc1 (stereo not drawn)	21 nM	> 500 nM	135 nM
O=C(CNc1ccccc1)NC(C(=O)NO)c1ccc(Cl)cc1 (stereo not drawn)	79 nM	> 500 nM	200 nM
O=C(NC1CCCC1)NC(C(=O)NO)c1ccc(-c2cc(F)c(F)c(F)c2)cc1 (stereo not drawn)	311 nM	122 nM	370 nM
O=C(CNc1cc(F)cc(F)c1)NC(C(=O)NO)c1ccc(Br)cc1 (stereo not drawn)	16 nM	> 500 nM	250 nM
CN1CCC(C(=O)NC(C(=O)NO)c2ccc(-c3cc(F)c(F)c(F)c3)cc2)C1 (stereo not drawn)	> 500 nM	> 500 nM	–
CN(C)C(C)(C)CC(=O)NC(C(=O)NO)c1ccc(-c2cc(F)c(F)c(F)c2)cc1 (stereo not drawn)	500 nM	293 nM	825 nM
O=C(CN1CCCC1)NC(C(=O)NO)c1ccc(-c2cc(F)c(F)c(F)c2)cc1 (stereo not drawn)	456 nM	> 500 nM	725 nM
O=C(CSc1ccccc1)NC(C(=O)NO)c1ccc(Br)cc1 (stereo not drawn)	68 nM	287 nM	230 nM
O=C(CNc1ccc(F)c(F)c1)NC(C(=O)NO)c1ccc(-c2cc(F)c(F)c(F)c2)cc1 (stereo not drawn)	> 500 nM	> 500 nM	–
CC(C)(O)CC(=O)NC(C(=O)NO)c1ccc(-c2cc(F)c(F)c(F)c2)cc1 (stereo not drawn)	154 nM	90 nM	155 nM
O=C(COc1ccccc1)NC(C(=O)NO)c1ccc(Br)cc1 (stereo not drawn)	> 500 nM	230 nM	620 nM
O=C(CCc1ccccc1)NC(C(=O)NO)c1ccc(-c2cc(F)c(F)c(F)c2)cc1 (stereo not drawn)	246 nM	70 nM	460 nM
O=C(NC(C(=O)NO)c1ccc(-c2cc(F)c(F)c(F)c2)cc1)C1CCOC1 (stereo not drawn)	259 nM	307 nM	605 nM
CC1(C(=O)NC(C(=O)NO)c2ccc(-c3cc(F)c(F)c(F)c3)cc2)COC1 (stereo not drawn)	439 nM	294 nM	610 nM
O=C(CNc1ccc(F)cc1)NC(C(=O)NO)c1ccc(Cl)cc1 (stereo not drawn)	49 nM	> 500 nM	220 nM
O=C(CNc1ccc(F)cc1)NC(C(=O)NO)c1ccc(Br)cc1 (stereo not drawn)	38 nM	> 500 nM	250 nM
CN1CCC1C(=O)NC(C(=O)NO)c1ccc(-c2cc(F)c(F)c(F)c2)cc1 (stereo not drawn)	> 500 nM	> 500 nM	–
CC(C)NC(=O)NC(C(=O)NO)c1ccc(-c2cc(F)c(F)c(F)c2)cc1 (stereo not drawn)	> 500 nM	120 nM	285 nM
CC(C)(C)C(=O)NC(C(=O)NO)c1ccc(-c2cc(F)c(F)c(F)c2)cc1 (stereo not drawn)	–	–	340 nM
O=C(CSc1ccccc1)NC(C(=O)NO)c1ccc(-c2cc(F)c(F)c(F)c2)cc1 (stereo not drawn)	195 nM	238 nM	430 nM
O=C(CN1CCCCC1)NC(C(=O)NO)c1ccc(-c2cc(F)c(F)c(F)c2)cc1 (stereo not drawn)	> 500 nM	> 500 nM	–

SMILES	Ki [1]	Ki [2]	EC50 (Plasmodium falciparum)
O=C(COc1ccccc1)NC(C(=O)NO)c1ccc(-c2cc(F)c(F)c(F)c2)cc1 (stereo not drawn)	390 nM	137 nM	1450 nM
CN(CC(=O)NC(C(=O)NO)c1ccc(Br)cc1)c1ccccc1 (stereo not drawn)	18 nM	> 500 nM	145 nM
O=C(NC(C(=O)NO)c1ccc(Br)cc1)c1cc2ccccc2[nH]1 (stereo not drawn)	> 500 nM	> 500 nM	–
COc1ccccc1NCC(=O)NC(C(=O)NO)c1ccc(-c2cc(F)c(F)c(F)c2)cc1 (stereo not drawn)	> 500 nM	> 500 nM	–
O=C(NC(C(=O)NO)c1ccc(-c2cc(F)c(F)c(F)c2)cc1)C1CCO1 (stereo not drawn)	203 nM	> 500 nM	350 nM
CN1CC(C(=O)NC(C(=O)NO)c2ccc(-c3cc(F)c(F)c(F)c3)cc2)C1 (stereo not drawn)	> 500 nM	> 500 nM	–
O=C(CNc1ccccc1F)NC(C(=O)NO)c1ccc(Br)cc1 (stereo not drawn)	26 nM	> 500 nM	155 nM
O=C(NC(C(=O)NO)c1ccc(-c2cc(F)c(F)c(F)c2)cc1)C1CCN1 (stereo not drawn)	> 500 nM	> 500 nM	–
COc1cccc(NCC(=O)NC(C(=O)NO)c2ccc(-c3cc(F)c(F)c(F)c3)cc2)c1 (stereo not drawn)	> 500 nM	> 500 nM	–
CC(C)(N)C(=O)NC(C(=O)NO)c1ccc(-c2cc(F)c(F)c(F)c2)cc1 (stereo not drawn)	227 nM	> 500 nM	1200 nM
O=C(CNc1ccccc1)NC(C(=O)NO)c1ccc(Br)cc1 (stereo not drawn)	36 nM	> 500 nM	175 nM
COc1ccc(NCC(=O)NC(C(=O)NO)c2ccc(-c3cc(F)c(F)c(F)c3)cc2)cc1 (stereo not drawn)	> 500 nM	> 500 nM	–
O=C(CN1CCC1)NC(C(=O)NO)c1ccc(-c2cc(F)c(F)c(F)c2)cc1 (stereo not drawn)	263 nM	> 500 nM	1800 nM
CC(C)(N)CC(=O)NC(C(=O)NO)c1ccc(-c2cc(F)c(F)c(F)c2)cc1 (stereo not drawn)	320 nM	28 nM	1350 nM
O=C(CNc1cccc(F)c1)NC(C(=O)NO)c1ccc(-c2cc(F)c(F)c(F)c2)cc1 (stereo not drawn)	> 500 nM	> 500 nM	–
O=C(CNc1ccc2cc[nH]c2c1)NC(C(=O)NO)c1ccc(Br)cc1 (stereo not drawn)	35 nM	> 500 nM	155 nM
CN(C)C(C)(C)C(=O)NC(C(=O)NO)c1ccc(-c2cc(F)c(F)c(F)c2)cc1 (stereo not drawn)	> 500 nM	> 500 nM	–
O=C(CCc1ccccc1)NC(C(=O)NO)c1ccc(Br)cc1 (stereo not drawn)	222 nM	14 nM	205 nM
CN(C)CC(=O)NC(C(=O)NO)c1ccc(-c2cc(F)c(F)c(F)c2)cc1 (stereo not drawn)	185 nM	> 500 nM	480 nM
CC(C)(C)NC(=O)NC(C(=O)NO)c1ccc(-c2cc(F)c(F)c(F)c2)cc1 (stereo not drawn)	> 500 nM	430 nM	–
O=C(NC(C(=O)NO)c1ccc(-c2cc(F)c(F)c(F)c2)cc1)C1CCNC1 (stereo not drawn)	> 500 nM	> 500 nM	–
CCN(CC)CCCC(C)Nc1ccnc2cc(Cl)ccc12 (stereo not drawn) [CHLOROQUINE]	–	–	33 nM
CN(CC(=O)NC(C(=O)NO)c1ccc(-c2cc(F)c(F)c(F)c2)cc1)c1ccccc1 (stereo not drawn)	> 500 nM	> 500 nM	–
O=C(CNc1cccc(F)c1)NC(C(=O)NO)c1ccc(Cl)cc1 (stereo not drawn)	49 nM	> 500 nM	175 nM
O=C(CNc1ccc(F)cc1)NC(C(=O)NO)c1ccc(-c2cc(F)c(F)c(F)c2)cc1 (stereo not drawn)	> 500 nM	> 500 nM	–
O=C(CNc1ccc(F)c(F)c1)NC(C(=O)NO)c1ccc(Br)cc1 (stereo not drawn)	> 500 nM	> 500 nM	–
